Common to all, as to assay type: cell-based
Assay [1] concerns the target T1, GIP receptor (Homo sapiens, UniProt P48546).
T1 sequence (P48546 22-466): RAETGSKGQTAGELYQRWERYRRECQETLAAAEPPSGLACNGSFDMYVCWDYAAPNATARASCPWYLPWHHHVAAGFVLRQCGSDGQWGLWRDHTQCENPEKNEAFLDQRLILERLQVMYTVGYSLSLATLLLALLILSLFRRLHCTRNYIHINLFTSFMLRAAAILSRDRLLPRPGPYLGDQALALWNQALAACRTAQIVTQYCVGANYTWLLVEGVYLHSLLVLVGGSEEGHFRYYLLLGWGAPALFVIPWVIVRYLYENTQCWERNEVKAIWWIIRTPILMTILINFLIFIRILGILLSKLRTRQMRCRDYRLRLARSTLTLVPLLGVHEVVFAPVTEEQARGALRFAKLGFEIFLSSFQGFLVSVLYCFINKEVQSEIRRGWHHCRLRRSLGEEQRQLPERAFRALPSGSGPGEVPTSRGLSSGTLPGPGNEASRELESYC
The experiment in a line: HitHunter cAMP assay, GIP receptor. The conditions noted are these: for Emax: read-out: Emax GIP-1R.

Assay [2] deals with T1, GIP receptor. Nature of the assay: PathHunter β-arrestin assay, GIP receptor. Further details: host or cells: PathHunter CHO-K1 GIPR β-Arrestin Cell Line.
For assay [3], the target named is T2, GLP-1 receptor (Homo sapiens, UniProt P43220). The experiment in a line: HitHunter cAMP assay, GLP-1 receptor. The following applies: for Emax: read-out: Emax GLP-1R.
T2 sequence (P43220 24-463): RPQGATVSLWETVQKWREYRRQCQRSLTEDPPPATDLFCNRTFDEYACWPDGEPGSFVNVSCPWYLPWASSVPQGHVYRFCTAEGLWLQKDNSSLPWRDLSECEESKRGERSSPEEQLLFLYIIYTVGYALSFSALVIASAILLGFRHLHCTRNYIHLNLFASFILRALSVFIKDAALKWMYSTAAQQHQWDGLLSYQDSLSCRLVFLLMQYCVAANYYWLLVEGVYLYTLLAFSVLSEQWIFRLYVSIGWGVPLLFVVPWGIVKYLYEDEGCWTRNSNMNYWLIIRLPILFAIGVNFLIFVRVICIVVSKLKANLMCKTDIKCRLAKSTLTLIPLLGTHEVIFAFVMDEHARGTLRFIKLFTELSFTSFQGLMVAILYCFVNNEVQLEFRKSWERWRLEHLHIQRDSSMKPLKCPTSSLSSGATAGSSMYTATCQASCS
The target in assay [4] is T2, GLP-1 receptor. Nature of the assay: PathHunter β-arrestin assay, GLP-1 receptor. Further details: host or cells: PathHunter CHO-K1 GLP1R β-Arrestin Cell Line.
[5] abbreviates: CHO cells stably expressing GIP receptor, cAMP accumulation, 30 min, read-out: EC50 GIP-1R.
[6] abbreviates: CHO cells, cAMP, normalized to maximum signal from GIP (high) and DMSO (low).
Where [7] appears, read: β-arrestin-2 recruitment, PathHunter CHO-K1 GIPR β-Arrestin Cell Line, 90 min at 37° C., normalized to GIP, read-out: GIPR β Arrestin EC50.
The mark [8] stands for this setting: CHO cells stably expressing human GLP-1 receptor, cAMP accumulation, 30 min, read-out: EC50 GLP-1R.
Setting [9] is: CHO cells, cAMP, normalized to maximum signal from GLP-1 (high) and DMSO (low).
[10] abbreviates: β-arrestin-2 recruitment, PathHunter CHO-K1 GLP1R β-Arrestin Cell Line, 90 min at 37° C., normalized to GLP-1, read-out: GLP-1R β Arrestin EC50.

Like-named read-outs stand apart in the source and are kept apart here. *1 amine or outer side, *2 acyl side, *3 side chain or, on linkers, in order; H or OH if unused. Where a SMILES comes first, the peptide text is derived from it. Side-chain parts run from the residue outwards. [ ]: non-standard residue; d: D form. The star is where a group is joined. NH(4-Cl-3-CF3-phenyl) = FC(F)(F)c1cc(N*)ccc1Cl; C20 diacid = O=C(O)CCCCCCCCCCCCCCCCCCC(=O)*; NH(4-OCF3-phenyl) = FC(F)(F)Oc1ccc(N*)cc1; NH(3,5-Cl2-phenyl) = Clc1cc(Cl)cc(N*)c1; γGlu = O=C(O)[C@H](CCC(=O)[*:2])N[*:1]; NH(4-F-phenyl) = Fc1ccc(N*)cc1; X29 = Fc1ccc(N*)c(F)c1; AEEA = NCCOCCOCC(=O)O; Aib = CC(C)(N)C(=O)O; CO = O=C([*:1])[*:2]; GABA = NCCCC(=O)O

As to `CC[C@H](C)[C@H](NC(=O)[C@H](CC(C)C)NC(=O)[C@H](Cc1c[nH]c2ccccc12)NC(=O)[C@H](CCC(N)=O)NC(=O)[C@@H](NC(=O)[C@H](Cc1ccccc1)NC(=O)[C@H](C)NC(=O)[C@H](CCCCNC(=O)COCCOCCNC(=O)COCCOCCNC(=O)CC[C@H](NC(=O)CCCCCCCCCCCCCCCCCCC(=O)O)C(=O)O)NC(=O)[C@H](CCC(N)=O)NC(=O)[C@H](C)NC(=O)[C@@H](NC(=O)[C@H](CCCCN)NC(=O)[C@H](CC(=O)O)NC(=O)[C@H](CC(C)C)NC(=O)C(C)(C)NC(=O)[C@@H](NC(=O)[C@H](CO)NC(=O)[C@H](Cc1ccc(O)cc1)NC(=O)[C@H](CC(=O)O)NC(=O)[C@H](CO)NC(=O)[C@@H](NC(=O)[C@H](Cc1ccccc1)NC(=O)[C@@H](NC(=O)CNC(=O)[C@H](CCC(=O)O)NC(=O)CCCNC(=O)CNC(=O)Nc1ccc(Cl)c(C(F)(F)F)c1)[C@@H](C)O)[C@@H](C)O)[C@@H](C)CC)[C@@H](C)CC)C(C)C)C(=O)N[C@@H](C)C(=O)NCC(=O)NCC(=O)N1CCC[C@H]1C(=O)N[C@@H](CO)C(=O)N[C@@H](CO)C(=O)NCC(=O)N[C@@H](C)C(=O)N1CCC[C@H]1C(=O)N1CCC[C@H]1C(=O)N1CCC[C@H]1C(=O)N[C@@H](CO)C(N)=O` [Compound 265] ({NH(4-Cl-3-CF3-phenyl)-CO}-G[GABA]EGTFTSDYSI[Aib]LDKIAQK([AEEA-AEEA-γGlu-C20 diacid])AFVQWLIAGGPSSGAPPPS-NH2), the concentration giving a half-maximal response (EC50) was 1 to 10 nM in assay [1], less than 1000 nM in assay [2], 10 to 100 nM in assay [3] and more than 1000 nM in assay [4]. The values for the Emax in assay [1] (CHO) and in assay [3] (CHO) were 107% and 94%, respectively.

For `CC[C@H](C)[C@H](NC(=O)[C@H](CC(C)C)NC(=O)[C@H](Cc1c[nH]c2ccccc12)NC(=O)[C@H](CCC(N)=O)NC(=O)[C@@H](NC(=O)[C@H](Cc1ccccc1)NC(=O)[C@H](C)NC(=O)[C@H](CCCCNC(=O)COCCOCCNC(=O)COCCOCCNC(=O)CC[C@H](NC(=O)CCCCCCCCCCCCCCCCCCC(=O)O)C(=O)O)NC(=O)[C@H](CCC(N)=O)NC(=O)[C@H](C)NC(=O)[C@@H](NC(=O)[C@H](CCCCN)NC(=O)[C@H](CC(=O)O)NC(=O)[C@H](CC(C)C)NC(=O)C(C)(C)NC(=O)[C@@H](NC(=O)[C@H](CO)NC(=O)[C@H](Cc1ccc(O)cc1)NC(=O)[C@H](CC(=O)O)NC(=O)[C@H](CO)NC(=O)[C@@H](NC(=O)[C@H](Cc1ccccc1)NC(=O)[C@@H](NC(=O)CNC(=O)[C@H](CCC(=O)O)NC(=O)CCCNC(=O)CNC(=O)Nc1cc(Cl)cc(Cl)c1)[C@@H](C)O)[C@@H](C)O)[C@@H](C)CC)[C@@H](C)CC)C(C)C)C(=O)N[C@@H](C)C(=O)NCC(=O)NCC(=O)N1CCC[C@H]1C(=O)N[C@@H](CO)C(=O)N[C@@H](CO)C(=O)NCC(=O)N[C@@H](C)C(=O)N1CCC[C@H]1C(=O)N1CCC[C@H]1C(=O)N1CCC[C@H]1C(=O)N[C@@H](CO)C(N)=O` [Compound 266] ({NH(3,5-Cl2-phenyl)-CO}-G[GABA]EGTFTSDYSI[Aib]LDKIAQK([AEEA-AEEA-γGlu-C20 diacid])AFVQWLIAGGPSSGAPPPS-NH2), the EC50 is 1 to 10 nM in assay [1], less than 1000 nM in assay [2], 1 to 10 nM in assay [3] and more than 1000 nM in assay [4]. The Emax in assay [1] (CHO) and in assay [3] (CHO) was 105% each time.

Regarding `CC[C@H](C)[C@H](NC(=O)[C@H](CC(C)C)NC(=O)[C@H](Cc1c[nH]c2ccccc12)NC(=O)[C@H](CCC(N)=O)NC(=O)[C@@H](NC(=O)[C@H](Cc1ccccc1)NC(=O)[C@H](C)NC(=O)[C@H](CCCCNC(=O)COCCOCCNC(=O)COCCOCCNC(=O)CC[C@H](NC(=O)CCCCCCCCCCCCCCCCCCC(=O)O)C(=O)O)NC(=O)[C@H](CCC(N)=O)NC(=O)[C@H](C)NC(=O)[C@@H](NC(=O)[C@H](CCCCN)NC(=O)[C@H](CC(=O)O)NC(=O)[C@H](CC(C)C)NC(=O)C(C)(C)NC(=O)[C@@H](NC(=O)[C@H](CO)NC(=O)[C@H](Cc1ccc(O)cc1)NC(=O)[C@H](CC(=O)O)NC(=O)[C@H](CO)NC(=O)[C@@H](NC(=O)[C@H](Cc1ccccc1)NC(=O)[C@@H](NC(=O)CNC(=O)[C@H](CCC(=O)O)NC(=O)CCCNC(=O)CNC(=O)Nc1ccc(F)cc1F)[C@@H](C)O)[C@@H](C)O)[C@@H](C)CC)[C@@H](C)CC)C(C)C)C(=O)N[C@@H](C)C(=O)NCC(=O)NCC(=O)N1CCC[C@H]1C(=O)N[C@@H](CO)C(=O)N[C@@H](CO)C(=O)NCC(=O)N[C@@H](C)C(=O)N1CCC[C@H]1C(=O)N1CCC[C@H]1C(=O)N1CCC[C@H]1C(=O)N[C@@H](CO)C(N)=O` [Compound 267] ({X29-CO}-G[GABA]EGTFTSDYSI[Aib]LDKIAQK([AEEA-AEEA-γGlu-C20 diacid])AFVQWLIAGGPSSGAPPPS-NH2), the EC50 in assay [1] (setting [5]) was 1 to 10 nM; in assay [2] (setting [7]), more than 1000 nM; in assay [3] (setting [8]), 1 to 10 nM; in assay [4] (setting [10]), more than 1000 nM. The Emax came to 106% in assay [1] (setting [6]) and 105% in assay [3] (setting [9]).

For the compound `CC[C@H](C)[C@H](NC(=O)[C@H](CC(C)C)NC(=O)[C@H](Cc1c[nH]c2ccccc12)NC(=O)[C@H](CCC(N)=O)NC(=O)[C@@H](NC(=O)[C@H](Cc1ccccc1)NC(=O)[C@H](C)NC(=O)[C@H](CCCCNC(=O)COCCOCCNC(=O)COCCOCCNC(=O)CC[C@H](NC(=O)CCCCCCCCCCCCCCCCCCC(=O)O)C(=O)O)NC(=O)[C@H](CCC(N)=O)NC(=O)[C@H](C)NC(=O)[C@@H](NC(=O)[C@H](CCCCN)NC(=O)[C@H](CC(=O)O)NC(=O)[C@H](CC(C)C)NC(=O)C(C)(C)NC(=O)[C@@H](NC(=O)[C@H](CO)NC(=O)[C@H](Cc1ccc(O)cc1)NC(=O)[C@H](CC(=O)O)NC(=O)[C@H](CO)NC(=O)[C@@H](NC(=O)[C@H](Cc1ccccc1)NC(=O)[C@@H](NC(=O)CNC(=O)[C@H](CCC(=O)O)NC(=O)CCCNC(=O)CNC(=O)Nc1ccc(F)cc1)[C@@H](C)O)[C@@H](C)O)[C@@H](C)CC)[C@@H](C)CC)C(C)C)C(=O)N[C@@H](C)C(=O)NCC(=O)NCC(=O)N1CCC[C@H]1C(=O)N[C@@H](CO)C(=O)N[C@@H](CO)C(=O)NCC(=O)N[C@@H](C)C(=O)N1CCC[C@H]1C(=O)N1CCC[C@H]1C(=O)N1CCC[C@H]1C(=O)N[C@@H](CO)C(N)=O` [Compound 268] ({NH(4-F-phenyl)-CO}-G[GABA]EGTFTSDYSI[Aib]LDKIAQK([AEEA-AEEA-γGlu-C20 diacid])AFVQWLIAGGPSSGAPPPS-NH2), the EC50 in assay [1] (setting [5]) is 1 to 10 nM; in assay [2] (setting [7]), more than 1000 nM; in assay [3] (setting [8]) it was 1 to 10 nM; in assay [4] (setting [10]), more than 1000 nM. Further, the Emax stood at 103% in assay [1] (setting [6]) and 95% in assay [3] (setting [9]).

For `CC[C@H](C)[C@H](NC(=O)[C@H](CC(C)C)NC(=O)[C@H](Cc1c[nH]c2ccccc12)NC(=O)[C@H](CCC(N)=O)NC(=O)[C@@H](NC(=O)[C@H](Cc1ccccc1)NC(=O)[C@H](C)NC(=O)[C@H](CCCCNC(=O)COCCOCCNC(=O)COCCOCCNC(=O)CC[C@H](NC(=O)CCCCCCCCCCCCCCCCCCC(=O)O)C(=O)O)NC(=O)[C@H](CCC(N)=O)NC(=O)[C@H](C)NC(=O)[C@@H](NC(=O)[C@H](CCCCN)NC(=O)[C@H](CC(=O)O)NC(=O)[C@H](CC(C)C)NC(=O)C(C)(C)NC(=O)[C@@H](NC(=O)[C@H](CO)NC(=O)[C@H](Cc1ccc(O)cc1)NC(=O)[C@H](CC(=O)O)NC(=O)[C@H](CO)NC(=O)[C@@H](NC(=O)[C@H](Cc1ccccc1)NC(=O)[C@@H](NC(=O)CNC(=O)[C@H](CCC(=O)O)NC(=O)CCCNC(=O)CNC(=O)Nc1ccc(OC(F)(F)F)cc1)[C@@H](C)O)[C@@H](C)O)[C@@H](C)CC)[C@@H](C)CC)C(C)C)C(=O)N[C@@H](C)C(=O)NCC(=O)NCC(=O)N1CCC[C@H]1C(=O)N[C@@H](CO)C(=O)N[C@@H](CO)C(=O)NCC(=O)N[C@@H](C)C(=O)N1CCC[C@H]1C(=O)N1CCC[C@H]1C(=O)N1CCC[C@H]1C(=O)N[C@@H](CO)C(N)=O` [Compound 269] ({NH(4-OCF3-phenyl)-CO}-G[GABA]EGTFTSDYSI[Aib]LDKIAQK([AEEA-AEEA-γGlu-C20 diacid])AFVQWLIAGGPSSGAPPPS-NH2), the EC50 was 1 to 10 nM in assay [1] (setting [5]), less than 1000 nM in assay [2] (setting [7]), 1 to 10 nM in assay [3] (setting [8]) and more than 1000 nM in assay [4] (setting [10]). The Emax stood at 103% in assay [1] (setting [6]) and 96% in assay [3] (setting [9]).

The values above are taken from patent publication US12281149B2, “Modulators of G-protein coupled receptors” (priority 2021, dated 2025).
